In PubChem BioAssay AID1259411 (Chemical Carcinogenesis Research Information System (CCRIS), 2018):
The source made the active and inactive calls. The rule behind the calls is not given here.

Tested on: rodent carcinogenicity bioassays, tumor incidence
Assay: CCRIS carcinogenicity studies
Summary of the method: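 NCI-built, expert-reviewed records of carcinogenicity and related test outcomes (mutagenicity, tumor promotion/inhibition) compiled from published and report sources, historical span 1985-2011, not updated.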

For `CCN(CC)N=O`, the carcinogen call (Species: MOUSE, Strain/Sex: B6C3F1/MALE, Route: INTRAPERITONEAL, Dose: 0, 12 UG ON DAYS 0, 3, 9 AND 15 (STUDY DURATION: 132 WK), Tumor Site: Type of Lesion: LIVER: TUMORS) was “active; positive”, the carcinogen call (Species: MOUSE, Strain/Sex: B6C3F2 (BRACHYMORPHIC)/MALE, Route: INTRAPERITONEAL, Dose: 0, 0.02, 0.07 UMOL/G BW IN 10 µL/G BW TRIOCTANOIN ONCE AT 12 D OF AGE (STUDY DURATION: 9 MO), Dose: 0, 0.02, 0.07 UMOL/G BW IN 10 µL/G BW TRIOCTANOIN ONCE AT 12 D OF AGE (STUDY DURATION: 9 MO), Tumor Site: Type of Lesion: LIVER: HEPATOMA) was “active; positive” and the carcinogen call (Species: MOUSE, Strain/Sex: BALB/C/FEMALE, Route: INTRAPERITONEAL, Dose: 0, 15, 90 MG/KG ONCE (STUDY DURATION: 18 MONTHS), Dose: 0, 15, 90 MG/KG ONCE (STUDY DURATION: 18 MONTHS), Tumor Site: Type of Lesion: LUNG: TUMOR) was “active; positive”. The carcinogen call (Species: MOUSE, Strain/Sex: C3AF1/FEMALE, Route: INTRAPERITONEAL, Dose: 0, 1.5, 3 UG IN 0.01 ML TRIOCTANOIN/G BW INITIAL DOSE GIVEN ON DAY 1 OF AGE AND 3 SUBSEQUENT DOSES GIVEN 3, 9 AND 15 DAY, Dose: 0, 1.5, 3 UG IN 0.01 ML TRIOCTANOIN/G BW INITIAL DOSE GIVEN ON DAY 1 OF AGE AND 3 SUBSEQUENT DOSES GIVEN 3, 9 AND 15 DAY, Tumor Site: Type of Lesion: LIVER: ADENOMA, CARCINOMA, LUNG: TUMORS) was “active; positive”, the carcinogen call (Species: MOUSE, Strain/Sex: C3AF1/FEMALE, Route: INTRAPERITONEAL, Dose: 0, 1.5, 3 UG IN 0.01 ML TRIOCTANOIN/G BW INITIAL DOSE GIVEN ON DAY 15 OF AGE AND 3 SUBSEQUENT DOSES GIVEN 3, 9 AND 15 DA, Dose: 0, 1.5, 3 UG IN 0.01 ML TRIOCTANOIN/G BW INITIAL DOSE GIVEN ON DAY 15 OF AGE AND 3 SUBSEQUENT DOSES GIVEN 3, 9 AND 15 DA, Tumor Site: Type of Lesion: LIVER: ADENOMA, CARCINOMA, LUNG: TUMORS) was “active; positive” and the carcinogen call (Species: MOUSE, Strain/Sex: C3AF1/FEMALE, Route: INTRAPERITONEAL, Dose: 0, 1.5, 3 UG IN 0.01 ML TRIOCTANOIN/G BW INITIAL DOSE GIVEN ON DAY 42 OF AGE AND 3 SUBSEQUENT DOSES GIVEN 3, 9 AND 15 DA, Dose: 0, 1.5, 3 UG IN 0.01 ML TRIOCTANOIN/G BW INITIAL DOSE GIVEN ON DAY 42 OF AGE AND 3 SUBSEQUENT DOSES GIVEN 3, 9 AND 15 DA, Tumor Site: Type of Lesion: LUNG: TUMORS) was “active; positive”. For the same molecule, the carcinogen call (Species: MOUSE, Strain/Sex: C3AF1/MALE, Route: INTRAPERITONEAL, Dose: 0, 1.5, 3 UG IN 0.01 ML TRIOCTANOIN/G BW INITIAL DOSE GIVEN ON DAY 1 OF AGE AND 3 SUBSEQUENT DOSES GIVEN 3, 9 AND 15 DAY, Dose: 0, 1.5, 3 UG IN 0.01 ML TRIOCTANOIN/G BW INITIAL DOSE GIVEN ON DAY 1 OF AGE AND 3 SUBSEQUENT DOSES GIVEN 3, 9 AND 15 DAY, Tumor Site: Type of Lesion: LIVER: ADENOMA, CARCINOMA, LUNG: TUMORS) was “active; positive”, the carcinogen call (Species: MOUSE, Strain/Sex: C3AF1/MALE, Route: INTRAPERITONEAL, Dose: 0, 1.5, 3 UG IN 0.01 ML TRIOCTANOIN/G BW INITIAL DOSE GIVEN ON DAY 15 OF AGE AND 3 SUBSEQUENT DOSES GIVEN 3, 9 AND 15 DA, Dose: 0, 1.5, 3 UG IN 0.01 ML TRIOCTANOIN/G BW INITIAL DOSE GIVEN ON DAY 15 OF AGE AND 3 SUBSEQUENT DOSES GIVEN 3, 9 AND 15 DA, Tumor Site: Type of Lesion: LIVER: ADENOMA, CARCINOMA, LUNG: TUMORS) was “active; positive” and the carcinogen call (Species: MOUSE, Strain/Sex: C3AF1/MALE, Route: INTRAPERITONEAL, Dose: 0, 1.5, 3 UG IN 0.01 ML TRIOCTANOIN/G BW INITIAL DOSE GIVEN ON DAY 42 OF AGE AND 3 SUBSEQUENT DOSES GIVEN 3, 9 AND 15 DA, Dose: 0, 1.5, 3 UG IN 0.01 ML TRIOCTANOIN/G BW INITIAL DOSE GIVEN ON DAY 42 OF AGE AND 3 SUBSEQUENT DOSES GIVEN 3, 9 AND 15 DA, Tumor Site: Type of Lesion: LIVER: ADENOMA, CARCINOMA, LUNG: TUMORS) was “active; positive”. For the same molecule, the carcinogen call (Species: MOUSE, Strain/Sex: C3H/FEMALE, Route: TRANSPLACENTAL, Dose: 0, 0.5 MMOL IN 0.9% STERILE SALINE (51 MG/KG) ON DAY 16 OF GESTATION (STUDY DURATION: LIFETIME)) was “inactive; negative”, the carcinogen call (Species: MOUSE, Strain/Sex: C3H/FEMALE, Route: TRANSPLACENTAL, Dose: 0, 0.5 MMOL IN 0.9% STERILE SALINE (51 MG/KG) ON DAY 19 OF GESTATION (STUDY DURATION: LIFETIME), Tumor Site: Type of Lesion: LIVER: CARCINOMA, LUNG: TUMOR) was “active; positive” and the carcinogen call (Species: MOUSE, Strain/Sex: C3H/MALE, Route: INTRAPERITONEAL, Dose: 0, 12 UG ON DAYS 0, 3, 9 AND 15 (STUDY DURATION: 132 WK), Tumor Site: Type of Lesion: LIVER: TUMORS) was “active; positive”. For the same molecule, the carcinogen call (Species: MOUSE, Strain/Sex: C3H/MALE, Route: TRANSPLACENTAL, Dose: 0, 0.5 MMOL IN 0.9% STERILE SALINE (51 MG/KG) ON DAY 16 OF GESTATION (STUDY DURATION: LIFETIME)) was “inactive; negative”, the carcinogen call (Species: MOUSE, Strain/Sex: C3H/MALE, Route: TRANSPLACENTAL, Dose: 0, 0.5 MMOL IN 0.9% STERILE SALINE (51 MG/KG) ON DAY 19 OF GESTATION (STUDY DURATION: LIFETIME), Tumor Site: Type of Lesion: LIVER: CARCINOMA, LUNG: CARCINOMA) was “active; positive” and the carcinogen call (Species: MOUSE, Strain/Sex: C57BL/6J/FEMALE, Route: INTRAPERITONEAL, Dose: 0, 15, 90 MG/KG ONCE (STUDY DURATION: 18 MONTHS), Dose: 0, 15, 90 MG/KG ONCE (STUDY DURATION: 18 MONTHS), Tumor Site: Type of Lesion: LUNG: TUMOR) was “active; positive”. The carcinogen call (Species: MOUSE, Strain/Sex: C57BL/MALE, Route: INTRAPERITONEAL, Dose: 0, 12 UG ON DAYS 0, 3, 9 AND 15 (STUDY DURATION: 132 WK)) was “inactive; negative”, the carcinogen call (Species: MOUSE, Strain/Sex: EU-PIM-1/FEMALE, Route: GAVAGE, Dose: 0, 1, 3 MG/KG 1/D FOR 38 WK (STUDY DURATION: 38 WK), Dose: 0, 1, 3 MG/KG 1/D FOR 38 WK (STUDY DURATION: 38 WK), Tumor Site: Type of Lesion: LIVER: HEMANGIOSARCOMA, LYMPHATIC SYSTEM: LYMPHOMA) was “active; positive” and the carcinogen call (Species: MOUSE, Strain/Sex: EU-PIM-1/MALE, Route: GAVAGE, Dose: 0, 1, 3 MG/KG 1/D FOR 38 WK (STUDY DURATION: 38 WK), Dose: 0, 1, 3 MG/KG 1/D FOR 38 WK (STUDY DURATION: 38 WK), Tumor Site: Type of Lesion: LIVER: HEMANGIOSARCOMA) was “active; positive”. For the same molecule, the carcinogen call (Species: MOUSE, Strain/Sex: SWISS/MALE, Route: INTRAGASTRIC, Dose: 0, 80, 40 MG/KG IN NORMAL SALINE ADMINISTERED WITH A 4 WK GAP BETWEEN EACH DOSE, (STUDY DURATION: 24 WK), Dose: 0, 80, 40 MG/KG IN NORMAL SALINE ADMINISTERED WITH A 4 WK GAP BETWEEN EACH DOSE, (STUDY DURATION: 24 WK), Tumor Site: Type of Lesion: LUNG: TUMOR) was “active; positive”, the carcinogen call (Species: MOUSE, Strain/Sex: SWR/FEMALE, Route: INTRAPERITONEAL, Dose: 0, 15, 90 MG/KG ONCE (STUDY DURATION: 18 MONTHS), Dose: 0, 15, 90 MG/KG ONCE (STUDY DURATION: 18 MONTHS), Tumor Site: Type of Lesion: LUNG: TUMOR) was “active; positive” and the carcinogen call (Species: RABBIT, Route: ORAL, Tumor Site: Type of Lesion: LIVER) was “active; positive”. The carcinogen call (Species: RAT, Route: INTRAPERITONEAL, RECTAL, Tumor Site: Type of Lesion: LIVER) was “active; positive”, the carcinogen call (Species: RAT, Route: INTRAVENOUS, Tumor Site: Type of Lesion: KIDNEY) was “active; positive” and the carcinogen call (Species: RAT, Route: ORAL, Tumor Site: Type of Lesion: LIVER, ESOPHAGUS, KIDNEY, NASAL CAVITY, Tumor Site: Type of Lesion: LIVER, ESOPHAGUS, KIDNEY, NASAL CAVITY) was “active; positive”. The carcinogen call (Species: RAT, Strain/Sex: F344/FEMALE, Route: INTRAVESICULAR, Dose: 0, 2.5 MG IN 0.2 ML ETHANOL: DEIONIZED WATER (1:3) 2/WK FOR 25 WK (TOTAL DOSE 1.2 MMOL) (STUDY DURATION: LIFESPAN), Tumor Site: Type of Lesion: LIVER: HEMANGIOSARCOMA, ESOPHAGUS: TUMOR) was “active; positive”, the carcinogen call (Species: RAT, Strain/Sex: F344/FEMALE, Route: ORAL, Dose: 0, 18 MG/L IN DEIONIZED DRINKING WATER DURING WK 1, 5, AND 9 (STUDY DURATION: 121 WK), Tumor Site: Type of Lesion: HEMATOPOIETIC SYSTEM: LEUKEMIA) was “active; positive” and the carcinogen call (Species: RAT, Strain/Sex: WISTAR/MALE, Route: ORAL, Dose: 0, 0.033, 0.066, 0.132, 0.264, 0.528, 1.056, 1.584, 2.112, 2.640, 3.168, 4.224, 5.280, 6.336, 8.448, 16.896 PPM IN DRINK, Dose: 0, 0.033, 0.066, 0.132, 0.264, 0.528, 1.056, 1.584, 2.112, 2.640, 3.168, 4.224, 5.280, 6.336, 8.448, 16.896 PPM IN DRINK, Tumor Site: Type of Lesion: ESOPHAGUS: TUMOR, LIVER HEPATOCELLULAR CARCINOMA) was “active; positive”.
